Assay results taken from US6667387B1, “HCV core peptides” (priority 1992, dated 2003).
Ends that are not written are not given here.

Key:
[1] = ELISA with seronegative / negative control sera (specificity); format: binding, human
How it was run: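 Specificity readout is OD at 450 nm (HRP goat anti-human Ig, TMB/H2O2, sulfuric acid stop), with ≥0.250 counted positive. Seronegative donor sera (typically 1:100, 1 h, 37° C) were applied to casein-blocked wells coated with peptide directly or via streptavidin capture of biotinylated peptide.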

[2] = test system: antibodies in sera from HCV-seropositive donors; test: ELISA with HCV antibody-positive sera (biotinylated peptides on streptavidin- or avidin-coated plates, unbiotinylated peptides coated directly); format: binding, human; conditions: for PEPTIDE ELISA (O.D.): Table 12, biotinylated 20-mers
How it was run: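 Peptides coated either directly at 2–5 or 3 μg/ml in carbonate buffer pH 9.6, or biotinylated at 1 μg/ml on streptavidin-coated wells (3 μg/ml). Plates casein-blocked, then human sera (1:100 or 1:20) incubated 1 h at 37° C. Bound antibody detected with HRP anti-human Ig/TMB, read as OD450.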

IIPDREVLYREFDEMEECSQ
optical density (450 nm) ([1]; Table 4F, negative serum): 0.005
optical density (450 nm) ([1]; Table 5, sample 1747 (negative), peptide concentration 0.01 micrograms per milliliter, listed as HCV peptide IX): 0.043
optical density (450 nm) ([1]; Table 5, sample 1747 (negative), peptide concentration 0.03 micrograms per milliliter, listed as HCV peptide IX): 0.044
optical density (450 nm) ([1]; Table 5, sample 1747 (negative), peptide concentration 0.1 micrograms per milliliter, listed as HCV peptide IX): 0.042
optical density (450 nm) ([1]; Table 5, sample 1747 (negative), peptide concentration 0.3 micrograms per milliliter, listed as HCV peptide IX): 0.046
optical density (450 nm) ([1]; Table 5, sample 1747 (negative), peptide concentration 1.0 micrograms per milliliter, listed as HCV peptide IX): 0.049
optical density (450 nm) ([1]; Table 5, sample 1747 (negative), peptide concentration 3.0 micrograms per milliliter, listed as HCV peptide IX): 0.051
optical density (450 nm) ([1]; Table 5, sample 1781 (negative), peptide concentration 0.01 micrograms per milliliter, listed as HCV peptide IX): 0.049
optical density (450 nm) ([1]; Table 5, sample 1781 (negative), peptide concentration 0.03 micrograms per milliliter, listed as HCV peptide IX): 0.048
optical density (450 nm) ([1]; Table 5, sample 1781 (negative), peptide concentration 0.1 micrograms per milliliter, listed as HCV peptide IX): 0.047
optical density (450 nm) ([1]; Table 5, sample 1781 (negative), peptide concentration 0.3 micrograms per milliliter): 0.051
optical density (450 nm) ([1]; Table 5, sample 1781 (negative), peptide concentration 1.0 micrograms per milliliter, listed as HCV peptide IX): 0.051
optical density (450 nm) ([1]; Table 5, sample 1781 (negative), peptide concentration 3.0 micrograms per milliliter): 0.053
optical density (450 nm) ([1]; Table 8, serum 1782 (blood donor), Avidin): 0.062
optical density (450 nm) ([1]; Table 8, serum 1784 (blood donor), Avidin): 0.050
optical density (450 nm) ([1]; Table 8, serum 1785 (blood donor), Avidin): 0.050
optical density (450 nm) ([1]; Table 8, serum 1794 (blood donor), Avidin): 0.098
optical density (450 nm) ([2]; Table 4F, serum 8315, 20-fold dilution): 2.672
optical density (450 nm) ([2]; Table 4F, serum 8316, 20-fold dilution): 0.367
optical density (450 nm) ([2]; Table 4F, serum 8317, 20-fold dilution): 1.634
optical density (450 nm) ([2]; Table 4F, serum 8318, 20-fold dilution): 2.431
optical density (450 nm) ([2]; Table 4F, serum 8320, 20-fold dilution): 0.896
optical density (450 nm) ([2]; Table 4F, serum 8321, 20-fold dilution): 0.457
optical density (450 nm) ([2]; Table 4F, serum 8326, 20-fold dilution): 2.540
optical density (450 nm) ([2]; Table 5, sample 8242 (positive), peptide concentration 0.01 micrograms per milliliter, listed as HCV peptide IX): 0.215
optical density (450 nm) ([2]; Table 5, sample 8242 (positive), peptide concentration 0.03 micrograms per milliliter, listed as HCV peptide IX): 0.496
optical density (450 nm) ([2]; Table 5, sample 8242 (positive), peptide concentration 0.1 micrograms per milliliter, listed as HCV peptide IX): 0.911
optical density (450 nm) ([2]; Table 5, sample 8242 (positive), peptide concentration 0.3 micrograms per milliliter, listed as HCV peptide IX): 0.795
optical density (450 nm) ([2]; Table 5, sample 8242 (positive), peptide concentration 1.0 micrograms per milliliter, listed as HCV peptide IX): 0.777
optical density (450 nm) ([2]; Table 5, sample 8242 (positive), peptide concentration 3.0 micrograms per milliliter, listed as HCV peptide IX): 0.791
optical density (450 nm) ([2]; Table 5, sample 8243 (positive), peptide concentration 0.01 micrograms per milliliter, listed as HCV peptide IX): 0.639
optical density (450 nm) ([2]; Table 5, sample 8243 (positive), peptide concentration 0.03 micrograms per milliliter, listed as HCV peptide IX): 1.421
optical density (450 nm) ([2]; Table 5, sample 8243 (positive), peptide concentration 0.1 micrograms per milliliter, listed as HCV peptide IX): 1.834
optical density (450 nm) ([2]; Table 5, sample 8243 (positive), peptide concentration 0.3 micrograms per milliliter, listed as HCV peptide IX): 1.892
optical density (450 nm) ([2]; Table 5, sample 8243 (positive), peptide concentration 1.0 micrograms per milliliter, listed as HCV peptide IX): 1.953
optical density (450 nm) ([2]; Table 5, sample 8243 (positive), peptide concentration 3.0 micrograms per milliliter, listed as HCV peptide IX): 1.959
optical density (450 nm) ([2]; Table 5, sample 8320 (positive), peptide concentration 0.01 micrograms per milliliter, listed as HCV peptide IX): 0.461
optical density (450 nm) ([2]; Table 5, sample 8320 (positive), peptide concentration 0.03 micrograms per milliliter, listed as HCV peptide IX): 1.007
optical density (450 nm) ([2]; Table 5, sample 8320 (positive), peptide concentration 0.1 micrograms per milliliter, listed as HCV peptide IX): 1.244
optical density (450 nm) ([2]; Table 5, sample 8320 (positive), peptide concentration 0.3 micrograms per milliliter, listed as HCV peptide IX): 1.798
optical density (450 nm) ([2]; Table 5, sample 8320 (positive), peptide concentration 1.0 micrograms per milliliter, listed as HCV peptide IX): 0.802
optical density (450 nm) ([2]; Table 5, sample 8320 (positive), peptide concentration 3.0 micrograms per milliliter, listed as HCV peptide IX): 1.779
optical density (450 nm) ([2]; Table 5, sample 8326 (positive), peptide concentration 0.01 micrograms per milliliter, listed as HCV peptide IX): 1.812
optical density (450 nm) ([2]; Table 5, sample 8326 (positive), peptide concentration 0.03 micrograms per milliliter, listed as HCV peptide IX): 2.193
optical density (450 nm) ([2]; Table 5, sample 8326 (positive), peptide concentration 0.1 micrograms per milliliter, listed as HCV peptide IX): 2.284
optical density (450 nm) ([2]; Table 5, sample 8326 (positive), peptide concentration 0.3 micrograms per milliliter, listed as HCV peptide IX): 2.271
optical density (450 nm) ([2]; Table 5, sample 8326 (positive), peptide concentration 1.0 micrograms per milliliter, listed as HCV peptide IX): 2.271
optical density (450 nm) ([2]; Table 5, sample 8326 (positive), peptide concentration 3.0 micrograms per milliliter, listed as HCV peptide IX): 2.284
optical density (450 nm) ([2]; Table 8, serum 8243 (HCV), Avidin): 1.213
optical density (450 nm) ([2]; Table 8, serum 8247 (HCV), Avidin): 0.756
optical density (450 nm) ([2]; Table 8, serum 8248 (HCV), Avidin): 0.047
optical density (450 nm) ([2]; Table 8, serum 8269 (HCV), Avidin): 0.051
optical density (450 nm) ([2]; Table 8, serum 8273 (HCV), Avidin): 0.053
optical density (450 nm) ([2]; Table 8, serum 8278 (HCV), Avidin): 0.074
optical density (450 nm) ([2]; Table 8, serum 8285 (HCV), Avidin): 0.270
optical density (450 nm) ([2]; Table 8, serum 8290 (HCV), Avidin): 0.048
optical density (450 nm) ([2]; Table 8, serum 8291 (HCV), Avidin): 0.052
PEPTIDE ELISA (O.D.) ([2]; serum 0843): 2.206
PEPTIDE ELISA (O.D.) ([2]; serum 8240): 0.142
PEPTIDE ELISA (O.D.) ([2]; serum 8241): 0.421
PEPTIDE ELISA (O.D.) ([2]; serum 8242): 2.114
PEPTIDE ELISA (O.D.) ([2]; serum 8332): 0.392
PEPTIDE ELISA (O.D.) ([2]; serum 8339): 2.497
PEPTIDE ELISA (O.D.) ([2]; serum 8350): 1.779
PEPTIDE ELISA (O.D.) ([2]; serum 8377): 2.360
PEPTIDE ELISA (O.D.) ([2]; serum 8378): 1.859
PEPTIDE ELISA (O.D.) ([2]; serum 8388): 2.300
antibody binding to the 20-mers ([2]; serum 8241): very strong
